Measurements taken from patent US20250304566A1, “CRYSTALLINE FORMS OF (5S)-3-[3-(3-CHLORO-2-FLUOROPHENOXY)-6-METHYLPYRIDAZIN-4-YL]-5-(2-CHLORO-4-METHYLBENZYL)-5,6-DIHYDRO-4H-1,2,4-OXADIAZINE” (priority 2022, published 2025).
One block for each compound: values may come before it.

Key:
Format in all cases: physicochemical
[1] = Measurement of Log P values by HPLC on reversed phase columns (EEC directive 79/831 Annex V.A8); conditions: reversed phase HPLC column, acidic range, 0.1% formic acid in water and acetonitrile
Description: Measurement of Log P values Measurement of Log P values as provided herein was performed according to EEC directive 79/831 Annex V.A8 by HPLC (High Performance Liquid Chromatography) on reversed phase columns with method determined by measurement of LC-UV, in an acidic range, with 0.1% formic acid in water and acetonitrile as eluent (linear gradient from 10% acetonitrile to 95% acetonitrile). Calibration was done with straight-chain alkan2-ones (with 3 to 16 carbon atoms) with known Log P values (measurement of Log P values using retention times with linear interpolation between successive alkanones). Lambda-max-values were determined using UV-spectra from 200 nm to 400 nm and the peak values of the chromatographic signals

[2] = Transition temperature between polymorphic forms A and B (temperature-depending XRPD); conditions: for phase change temperature: temperature-depending XRPD
Description: To obtain crystals of polymorphic form A, a temperature-depending X-ray powder diffraction (XRPD) experiment was performed, in which recrystallization was allowed at different temperatures.

[3] = Slurry experiment (polymorph obtained, XRPD); conditions: for Mod. obtained: 8 days
Description: Compound of formula (I) was suspended in the respective solvent and stirred at 0° C., 40° C. (Mya4 stirrer station at 250 u/min) and 80° C. After three to eight days, an additional amount of solvent was added to the suspensions. In two experiments additional substance were added after four days. After eight days the suspensions were dried at ambient conditions.
The obtained crystals were isolated and analyzed by X-ray powder diffraction (XRPD) spectrometry, DSC and TGA.

- chromatographic logP [1]: 3.88
SMILES: Cc1ccc(C[C@H]2CON=C(c3cc(C)nnc3Oc3cccc(Cl)c3F)N2)c(Cl)c1 [compound of formula (I), (5S)-3-[3-(3-chloro-2-fluorophenoxy)-6-methylpyridazin-4-yl]-5-(2-chloro-4-methylbenzyl)-5,6-dihydro-4H-1,2,4-oxadiazine]

- phase change temperature ([2]; on cooling): 40 °C
- phase change temperature ([2]; on heating): 60 °C
SMILES: Cc1ccc(C[C@H]2CON=C(c3cc(C)nnc3Oc3cccc(Cl)c3F)N2)c(Cl)c1 [polymorphic form A, (5S)-3-[3-(3-chloro-2-fluorophenoxy)-6-methylpyridazin-4-yl]-5-(2-chloro-4-methylbenzyl)-5,6-dihydro-4H-1,2,4-oxadiazine]
- thermodynamic stability ([2]; at lower temperatures): very fast transition to polymorphic form B

- Mod. obtained ([3]; Exp. No. 1: Mod. B used, CH3CN, 0 °C): Mod. B
- Mod. obtained ([3]; Exp. No. 2: Mod. B used, CH3CN, 40 °C): Mod. B
- Mod. obtained ([3]; Exp. No. 3: Mod. B used, CH3CN/water, 80 °C): Mod. B
- Mod. obtained ([3]; Exp. No. 4: Mod. B used, Ethanol/water (1:1), 0 °C): Mod. B
- Mod. obtained ([3]; Exp. No. 5: Mod. B used, Ethanol/water (1:1), 40 °C): Mod. B
- Mod. obtained ([3]; Exp. No. 6: Mod. B used, Ethanol/water (1:1), 80 °C): Mod. B
- thermodynamic stability ([2]; below the transition temperatures (49° C. to 66° C.)): thermodynamically stable polymorph
SMILES: Cc1ccc(C[C@H]2CON=C(c3cc(C)nnc3Oc3cccc(Cl)c3F)N2)c(Cl)c1 [polymorphic form B, (5S)-3-[3-(3-chloro-2-fluorophenoxy)-6-methylpyridazin-4-yl]-5-(2-chloro-4-methylbenzyl)-5,6-dihydro-4H-1,2,4-oxadiazine]
- stability in slurry experiments: recrystallization events ([3]; above the transition temperature range over an extended period of time): No recrystallization events were observed
